Tests used:
4T1 breast cancer cells = system: 4T1 breast cancer cells; parameters: method as in PMID 31473253; settings: intraperitoneal, 100 mg/kg every 2 days for 10 days; cited from earlier work
[1] = system: mammary carcinoma cells and mammary epithelial cells; experiment: Cellular uptake assay, all cell lines together; type: cell-based, human and mouse; settings: 72 h, 20 μM
Procedure: Figure 1 Conjugation of PZ with DHA increases the cellular uptake and stability of PZ and DHA. The cells were treated with 20 μM of PZ, DHA or PZ-DHA and cultured for 72 h at 37 °C. Cells were harvested and washed thoroughly using cold PBS. Cells were lysed in cold acetone containing 0.05 mg/mL quercetin, and cell lysates were collected by centrifugation and analyzed by using UPLC-ESI-MS/MS. (A) mean % cellular uptake of PZ, DHA and PZ-DHA. (B) fold increase in intracellular PZ and DHA when conjugated. ANOVA multiple means statistical comparison method was performed and differences among means were compared using Tukey’s test; *p < 0.05. (MDA-MB-231 p = 0.008; MDA-MB-468 p = 0.01; 4T1 p = 0.02; MCF-7 p = 0.01; MCF-10A p = 0.0005).
Cells were seeded at a density of 3 × 10^5 cells (MDA-MB-231, MDA-MB-468, MCF-7, and MCF-10A) or 1 × 10^5 cells (4T1) /T-75 flask. The cells were cultured overnight to promote cell adhesion. Adherent cells were treated with a sub-cytotoxic concentration (20 μM) of PZ, DHA or PZ-DHA and cultured for 72 h at 37 °C. The supernatant was carefully removed, and cell monolayers were washed with cold PBS. Cells were harvested using TrypLE Express and washed thoroughly with cold PBS. The cell pellet was resuspended in 3 mL of cold acetone containing 0.05 mg/mL quercetin as the internal standard, and incubated overnight at 4 °C. Cell lysates were collected by centrifugation at 14,000×g for 15 min at 4 °C and samples were concentrated by evaporating acetone under a stream of nitrogen gas. Dry pellets were reconstituted in methanol and filtered. The sample was analyzed using a UPLC/ESI/MS system. The percentage cell uptake of the total dose was quantified using standard curves of PZ (R^2 = 0.99), DHA (R^2 = 0.98) or PZ-DHA (R^2 = 0.99) made in methanol.
PZ-DHA and/or PZ-DHA metabolites in malignant/non-malignant epithelial cell lysates, in vitro microsome enzyme reaction mixtures, and mouse serum aliquots were determined using UPLC-ESI–MS/MS instrument (Waters Limited, Mississauga, ON, Canada). All mass spectroscopic analyses were performed using mass scan (full-scan, identification of unknowns) and single ion monitoring (SIM; quantification of PZ, DHA, PZ-DHA, and quercetin) modes of a Waters H-class UPLC separations module coupled with a Micromass Quattro micro API MS/MS system and MassLynx V4.0 control software. An Allure biphenyl column (100 mm × 2.1 mm, 1.8 μm, Restek Pure Chromatography, Bellefonte, PA, USA) and a flow rate of 0.3 mL/min were employed. ESI- mode with a capillary voltage of 3000 V and a nebulizer gas (N2) temperature of 375 °C were used. A volume of 2 µL sample was injected.

In the case of CC/C=C\C/C=C\C/C=C\C/C=C\C/C=C\C/C=C\CCC(=O)OC[C@H]1O[C@@H](Oc2cc(O)cc(O)c2C(=O)CCc2ccc(O)cc2)[C@H](O)[C@@H](O)[C@@H]1O [PZ-DHA, phloridzin docosahexaenoate], the “tumor growth and metastasis of 4T1 breast cancer cells” value (4T1 breast cancer cells) is given as “inhibits tumor growth and metastasis”, the “abundance in cells throughout the experimental period” value [1] is given as “stable abundance” and the “cellular uptake (as a % of the dose), in words” value ([1]; all cell lines) is given as “significantly higher than that of PZ or DHA”.

From paper PMC7721897, “Metabolism and pharmacokinetics of a novel polyphenol fatty acid ester phloridzin docosahexaenoate in Balb/c female mice” (Scientific Reports, 2020)
